Experiments:
PTEN = assay: Western and Northern blotting for expression of PTEN (test (e)); format: cell-based, human; settings: for Test (e) at least 50% increase in expression of PTEN: positive in 184B5, 184B5/HER, HCA7, HCT116, SKBR3 and BT474 cells
Procedure: We turn now to criterion (e), i.e., at least 50% increase in expression of PTEN.
PTEN is a tumor suppressor that inhibits cell proliferation and induces programmed cell death. PTEN (also know as MMAC-1 or TEP-1) is described in Yamada, K. M., et al, Journal of Cell Science 114, 2375-2382, the whole of which is incorporated herein by reference.
Western blotting and Northern blotting techniques were used to evaluate the expression of PTEN. The expression of PTEN was evaluated in HCA7, HCT116, SKBR3, 184B5/HER, 184B5 and BT474 cells. 5×10^6cells were used to treat either vehicle alone or the test compound. The Western blotting analysis was performed as described above except anti-PTEN antibody was used to probe the blot. The antibody was obtained from Santa Cruz Biotechnology, Inc. CA. Northern blotting for PTEN was performed as described above and cDNA for PTEN as described in Tamura, M., et al, Science 5; 280 (5369):1614-1617 (1998), was used as a probe.

[1] = Patient with colon cancer (Example IV); format: in vivo, human; settings: person, 800 mg bid
Description: A person presents with symptoms of constipation and rectal bleeding and is diagnosed with colon cancer.

[2] = Patient with Alzheimer's disease (Example V); format: in vivo, human; settings: person two, 200 mg bid
Procedure: person two presents with symptoms of memory loss and is diagnosed with Alzheimer's disease. The patient is given and maintained on a 200 mg bid dose of indomethacin heptyl ester. The progression of the symptoms stops.

[3] = Patient with oral premalignant lesion (Example VII); format: in vivo, human; settings: person, lozenges 100 mg twice a day for six months
Description: A person presents with a white patch on their tongue and is diagnosed as having an oral premalignant lesion.

[4] = Patient with cervical intraepithelial neoplasia, HPV 16 detected (Example VIII); format: in vivo, human; settings: person, 0.5% in a cream on sponge/cervical cap, six months
Description: A person presents to their gynecologist for evaluation. […] On biopsy, the patient is found to have cervical intraepithelial neoplasia. HPV 16 is detected. […] The SC-236 is discontinued with no recurrence of cervical intraepithelial neoplasia.

Compound | Test (e) at least 50% increase in expression of PTEN (PTEN) | rate of progression of the colon cancer [1] | progression of the symptoms (memory loss, Alzheimer's disease) [2] | outcome of oral premalignant lesion [3] | repeat biopsy finding of cervical intraepithelial neoplasia [4] | increase in amounts of PTEN (PTEN; 184B5 cells, 24 hours, Western blotting) [%]
Cc1ccc(-c2cc(C(F)(F)F)nn2-c2ccc(S(N)(=O)=O)cc2)cc1 [Celecoxib] | + (A plus sign in the table indicates a positive result, that is meeting the test for each cell line as indicated above as providing a positive result) | decreases | – | – | – | –
CCCCCCCOC(=O)Cc1c(C)n(C(=O)c2ccc(Cl)cc2)c2ccc(OC)cc12 [Indomethacin Analog 1, indomethacin heptyl ester] | + (A plus sign in the table indicates a positive result, that is meeting the test for each cell line as indicated above as providing a positive result) | – | stops | – | – | –
NS(=O)(=O)c1ccc(-n2nc(C(F)(F)F)cc2-c2ccc(Cl)cc2)cc1 [SC-236, 4-[5-(4-chlorophenyl)-3-(trifluoromethyl)-1H-pyrazol-1-yl]benzenesulfonamide] | + (A plus sign in the table indicates a positive result, that is meeting the test for each cell line as indicated above as providing a positive result) | decreases | – | resolution of the premalignant lesion | no further evidence of cervical intraepithelial neoplasia | > 100
CS(=O)(=O)c1ccc(-n2nc(C(F)(F)F)cc2-c2ccc(F)cc2)cc1 [SC-58125, 4-[5-(4-fluorophenyl)-3-(trifluoromethyl)-1H-pyrazol-1-yl]benzenemethylsulfone] | + (A plus sign in the table indicates a positive result, that is meeting the test for each cell line as indicated above as providing a positive result) | – | – | – | – | –

— patent publication US20050031537A1, “Multifunctional COX-2 inhibitors” (priority 2002, published 2005)
